# Where a name gives a salt, the structure may show the parent alone. Read-outs that look alike come from different tables or passages of the source.
# Experiments:
# SkChA-1 cells = assay: Subcutaneous mouse model of cholangiocarcinoma; assay type: in vivo, mice; conditions: 0.3 mg/kg i.p. BID for 25 days; FIG. 17
# Experimental: SkChA-1 cells (5×10^5) were suspended in matrigel and injected subcutaneously into the left flank of 4-6 week old female nude mice. Seven days post-cell implantation, mice were injected intraperitoneally with 0.3 mg/kg of compound 1 BID for 25 days. Treatment was stopped at this point, and mice sacrificed. Tumor samples, if any, were harvested from these mice, and tumor weight and volume measured. If tumor burden exceeded University of Minnesota animal care guidelines, mice were sacrificed and their tumors harvested at an earlier time point. Control mice were injected with saline BID.
# [1] = tested on: S2013, a highly metastatic pancreatic cancer cell line; assay: Orthotopic mouse model of pancreatic cancer (21 day dosing study); assay type: in vivo, mice; conditions: 0.42 mg/kg i.p. for 21 d; FIG. 16
# Experimental: 1×10^6 Cells of S2013, a highly metastatic pancreatic cancer cell line, were suspended in matrigel and injected into the tail of the pancreas of 4-6 week old female nude mice. Seven days post-cell implantation, mice were injected intraperitoneally with 0.42 mg/kg of compound 1 for 21 d. Treatment was stopped after 21 d, and mice sacrificed. Tumor samples, if any, were harvested from these mice, and tumor weight and volume measured. If tumor burden exceeded University of Minnesota animal care guidelines, mice were sacrificed and their tumors harvested at an earlier time point. Control mice were injected with saline QD.
# MiaPaca-2 cells = assay: Comparative in vivo study, orthotopic MiaPaca-2 pancreatic tumor in nude mice; conditions: i.p. daily 60 days
# Experimental: Thirty nude mice of the strain athymic nu/nu were obtained from National Cancer Institute (NCI) (Rockville, Md.) and kept in a RAR facility. The mice were anaesthetized in accordance with the recommendations of the RAR facility using ketamine 75-200 mg/kg and xylazine 4-8 mg/kg. A small incision 3 mm was made on the left side of the abdominal wall and the spleen was pulled out with forceps far enough to expose and access the pancreas. MiaPaca-2 cell medium was prepared and kept on ice until delivery into the mice. Into each of the mice, 1 million MiaPaca-2 cells suspended in MATRIGEL™ (available from Becton-Dickinson Corporation, Franklin Lakes, N.J.) was injected into the tail of the pancreas (identified by its anatomical attachment with the spleen) using a Hamilton syringe. Following delivery of the cells, the syringe was held steady for an additional 5-10 seconds to permit the MATRIGEL™ to set. The spleen was replaced back into the abdominal cavity, and the abdominal wall was closed by vicryl suture in a continuous manner. The skin was apposed and closed using wound clips. The mice were then transferred to a heating pad until fully recovered before being returned to the cage. Post-operative pain medication (buprenonorphine 0.1 mg/kg) was administered intraperitoneally immediately after full recovery from anaesthesia to prevent respiratory depression and then administered every 12 hours for 2 days. The wound clips were removed from the mice after 7 days of surgery.
# The mice were then randomized into 3 groups, each group having 10 mice. The groups were as follows: control group, triptolide group and the triptolide prodrug (compound 1) group. The control group consisted of mice that were injected intraperitoneally with vehicle DMSO.
# The triptolide group subjects were injected with 0.2 mg/kg of triptolide dissolved in DMSO and diluted with phosphate buffered saline to a volume of 100 the intraperitoneal injections being daily over a period of 60 days. The compound 1 subjects were intraperitoneally injected daily for 60 days with 0.28 mg/kg of the compound dissolved in phosphate buffered saline diluted to a volume of 100 μl.
# The mice were euthanized under anaesthesia at the conclusion of the 60 day treatments. Samples were collected (blood, lung, spleen, liver, kidneys and tumor tissue), and tumor volume and weight were measured and compared among the different groups. Observations were made on the loco-regional growth and cancer growth.
# [2] = tested on: Pancreatic cancer cells (MiaPaca-2, Panc-1, S2VP10); assay: Comparative in vitro cell viability (Dojindo Cell Counting Kit-8); conditions: 50 to 200 nmol/L, 24 and 48 hours; prodrug with alkaline phosphatase; FIG. 4-6
# MIA PaCa-2 cells = assay: Orthotopic mouse model of pancreatic cancer (60 day dosing study); assay type: in vivo, mice; conditions: i.p. 60 d, compound 1 0.1-0.9 mg/kg; for survival versus vehicle: triptolide 0.2 mg/kg QD, observed another 28 d, FIG. 13, 14
# Experimental: MIA PaCa-2 cells (1×10^6) were suspended in matrigel and injected into the tail of the pancreas of 4-6 week old female nude mice. Ten days post-cell implantation, mice were injected intraperitoneally with indicated concentrations of compound 1 (0.1, 0.15, 0.3, 0.6 or 0.9 mg/kg) or 0.2 mg/kg Triptolide QD for 60 d. Control mice were injected with saline BID. […] Tumor samples, if any, were harvested from these mice, and tumor weight and volume measured. If tumor burden exceeded University of Minnesota animal care guidelines, mice were sacrificed at earlier time points and their tumors harvested.
# [3] = Tris buffer (pH 7.4) and Borate buffer (pH 7.4), room temperature
# alkaline phosphatase = assay: In vitro enzymatic conversion (hydrolysis) by alkaline phosphatase; assay type: in vitro ADME, bovine; conditions: bovine
# Experimental: (§1) Compound 1 is converted into the active triptolide form by action of the enzyme alkaline phosphatase. An in vitro experiment to study the bioconversion of the triptolide prodrug compound of the invention was performed. In vitro bioconversion was simulated using alkaline phosphatase (from bovine intestinal mucosa, Type VII-S available from Sigma-Aldrich (St. Louis, Mo.) in glycine buffer (pH 9.8).
# (§2) The first order degradation constant was calculated by fitting the remaining concentration versus the incubation time. The degradation half-life (t½) of compound 1 was determined to be 2 minutes.
# [4] = tested on: alkaline phosphatase (from bovine intestinal mucosa, Type VII-S); assay: as above; assay type: in vitro ADME; conditions: alkaline phosphatase in glycine buffer (pH 9.8), FIG. 3
# Experimental: as §1, §2
# caspase-3 = assay: Caspase-3 activity in neuroblastoma cells; assay type: cell-based; conditions: N2a and SKNSH cells; FIG. 20
# Experimental: (§3) Neuroblastoma N2a and SKNSH cells were treated with triptolide, resulting in dose- and time-dependent cell killing in N2a, with more than 50% of cells killed with 62.5 nM triptolide at 24 hours and nearly 85% of cells killed with 250 nM triptolide at 48 hours (FIG. 19). To confirm the hypothesis that triptolide results in neuroblastoma cell death via an apoptotic pathway, caspase-3 activity was measured as a marker of apoptosis. In both cell lines, increases in caspase activity with higher doses of triptolide and longer duration of therapy.
# Neuroblastoma N2 cells = assay: Orthotopic mouse model of neuroblastoma; assay type: in vivo; conditions: 0.4 mg/kg i.p. for 21 days, A/J immunocompetent mice; FIG. 18
# Experimental: Neuroblastoma N2 cells (1×10^6) were suspended in matrigel and injected into the left retroperitoneal space of 4-6 week old A/J immunocompetent mice. Three days post-cell implantation, mice were injected with 0.4 mg/kg of triptolide intraperitoneally for 21 days. Treatment was stopped at this point, and mice sacrificed. Tumor samples, if any, were harvested from these mice, and tumor weight and volume measured. If tumor burden exceeded University of Minnesota animal care guidelines, mice were sacrificed and their tumors harvested at an earlier time point. Control mice were injected with DMSO for 21 days.
# Neuroblastoma N2a = assay: Neuroblastoma cell killing; assay type: cell-based
# Experimental: as §3
# [5] = triptolide 0.2 mg/kg, compound 1 0.28 mg/kg
# [6] = pH 9.8, Alkaline Phosphatase, 37° C., read-out: Enzymatic Hydrolysis (t½), Alkaline Phosphatase, 37° C.
smiles,measurement,setting,value
"CC(C)[C@]12O[C@H]1[C@@H]1O[C@]13[C@]1(O[C@H]1C[C@H]1C4=C(CC[C@@]13C)C(=O)OC4)[C@@H]2OCOP(=O)(O)O [Compound 1, 14-O-Phosphonooxymethyltriptolide Disodium Salt]",tumor burden (tumor volume or tumor weight) versus control,SkChA-1 cells,decreased tumor burden
same,tumor burden (tumor volume or tumor weight) versus control,[1],decreased tumor burden
same,pancreatic tumor growth inhibition vs untreated control,MiaPaca-2 cells; 0.28 mg/kg compound 1,considerable pancreatic tumor growth inhibition
same,impact on body weight,MiaPaca-2 cells; [5],no apparent significant impact
same,signs of toxicity,MiaPaca-2 cells; [5],no apparent signs of toxicity
same,tumor volume vs untreated control,MiaPaca-2 cells; [5],significantly reduced
same,pancreatic cell viability,[2],significantly reduced
same,tumor burden (tumor volume or tumor weight) versus control,MIA PaCa-2 cells; FIG. 15,decreased tumor burden
same,survival versus vehicle,MIA PaCa-2 cells,enhanced survival
same,degradation after 1 month,[3],no degradation
same,half-life,"alkaline phosphatase; alkaline phosphatase in glycine buffer (pH 9.8), first order fit, read-out: degradation half-life (t½)",2 min
same,time period in which the majority of conversion to triptolide took place,[4],≤ 10 min
CC(C)[C@]12O[C@H]1[C@@H]1O[C@]13[C@]1(O[C@H]1C[C@H]1C4=C(CC[C@@]13C)C(=O)OC4)[C@@H]2O [triptolide],tumor volume vs untreated control,MiaPaca-2 cells; [5],significantly reduced
same,pancreatic cell viability,[2],significantly reduced
same,survival versus vehicle,MIA PaCa-2 cells,enhanced survival
same,caspase-3 activity levels,caspase-3,dose- and time-dependent increases
same,tumor burden (tumor volume and tumor mass) versus control,Neuroblastoma N2 cells,decreased tumor burden
same,cells killed,"Neuroblastoma N2a; 62.5 nM, 24 hours",more than 50%
same,cells killed,"Neuroblastoma N2a; 250 nM, 48 hours",~85%
"CC(O[C@@H]1[C@@]2(C(C)C)O[C@H]2[C@@H]2O[C@]23[C@]12O[C@H]2C[C@H]1C2=C(CC[C@@]13C)C(=O)OC2)OP(=O)(O)O (stereo partly drawn) [Example 3, 14-O-Phosphonooxyethyltriptolide Disodium Salt]",half-life,alkaline phosphatase; [6],9 min
"CCC(O[C@@H]1[C@@]2(C(C)C)O[C@H]2[C@@H]2O[C@]23[C@]12O[C@H]2C[C@H]1C2=C(CC[C@@]13C)C(=O)OC2)OP(=O)(O)O (stereo partly drawn) [Example 4, 14-O-Phosphonooxypropyltriptolide Disodium Salt]",half-life,alkaline phosphatase; [6],17 min

# — patent US10183033B2, “Triptolide prodrugs” (priority 2009, dated 2019)
